Key:
Assay type in all cases: functional
SR [1] = test: Antiproliferative activity against human SR cells assessed as growth inhibition at 10 uM measured after 48 hrs by NCI protocol based SRB assay relative to control; conditions: read-out: GI
SR [2] = test: Cytostatic activity in human SR cells assessed as tumor growth inhibition measured after 48 hrs by NCI protocol based SRB assay
SK-MEL-2 = test: Cytostatic activity in human SK-MEL-2 cells assessed as tumor growth inhibition measured after 48 hrs by NCI protocol based SRB assay
MDA-MB-231 [3] = test: Cytostatic activity in human MDA-MB-231 cells assessed as tumor growth inhibition measured after 48 hrs by NCI protocol based SRB assay
T47D = test: Antiproliferative activity against human T47D cells assessed as growth inhibition measured after 48 hrs by NCI protocol based SRB assay
Hs-578T [4] = test: Antiproliferative activity against human Hs-578T cells assessed as growth inhibition measured after 48 hrs by NCI protocol based SRB assay
SF-268 = test: Antiproliferative activity against human SF-268 cells assessed as growth inhibition measured after 48 hrs by NCI protocol based SRB assay
NCI-H322M = test: Cytostatic activity in human NCI-H322M cells assessed as tumor growth inhibition measured after 48 hrs by NCI protocol based SRB assay
RPMI-8226 = test: Antiproliferative activity against human RPMI-8226 cells assessed as growth inhibition measured after 48 hrs by NCI protocol based SRB assay
Hs-578T [5] = test: Cytostatic activity in human Hs-578T cells assessed as tumor growth inhibition measured after 48 hrs by NCI protocol based SRB assay
A549 = test: Antiproliferative activity against human A549 cells assessed as growth inhibition measured after 48 hrs by NCI protocol based SRB assay
HCC 2998 = test: Cytostatic activity in human HCC 2998 cells assessed as tumor growth inhibition measured after 48 hrs by NCI protocol based SRB assay
SF-295 [6] = test: Cytostatic activity in human SF-295 cells assessed as tumor growth inhibition measured after 48 hrs by NCI protocol based SRB assay
SK-MEL-5 = test: Antiproliferative activity against human SK-MEL-5 cells assessed as growth inhibition measured after 48 hrs by NCI protocol based SRB assay
SK-MEL-28 = test: Antiproliferative activity against human SK-MEL-28 cells assessed as growth inhibition measured after 48 hrs by NCI protocol based SRB assay
HOP-92 [7] = test: Antiproliferative activity against human HOP-92 cells assessed as growth inhibition measured after 48 hrs by NCI protocol based SRB assay
NCI-H226 = test: Antiproliferative activity against human NCI-H226 cells assessed as growth inhibition measured after 48 hrs by NCI protocol based SRB assay
HOP-92 [8] = test: Cytostatic activity in human HOP-92 cells assessed as tumor growth inhibition measured after 48 hrs by NCI protocol based SRB assay
OVCAR-3 = test: Cytostatic activity in human OVCAR-3 cells assessed as tumor growth inhibition measured after 48 hrs by NCI protocol based SRB assay
EKVX = test: Antiproliferative activity against human EKVX cells assessed as growth inhibition measured after 48 hrs by NCI protocol based SRB assay
ACHN = test: Cytostatic activity in human ACHN cells assessed as tumor growth inhibition measured after 48 hrs by NCI protocol based SRB assay
SF-295 [9] = test: Antiproliferative activity against human SF-295 cells assessed as growth inhibition measured after 48 hrs by NCI protocol based SRB assay
HCT-116 = test: Antiproliferative activity against human HCT-116 cells assessed as growth inhibition measured after 48 hrs by NCI protocol based SRB assay
NCI-H23 = test: Antiproliferative activity against human NCI-H23 cells assessed as growth inhibition measured after 48 hrs by NCI protocol based SRB assay
A498 = test: Antiproliferative activity against human A498 cells assessed as growth inhibition measured after 48 hrs by NCI protocol based SRB assay
MDA-MB-435 = test: Antiproliferative activity against human MDA-MB-435 cells assessed as growth inhibition measured after 48 hrs by NCI protocol based SRB assay
M14 = test: Cytostatic activity in human M14 cells assessed as tumor growth inhibition measured after 48 hrs by NCI protocol based SRB assay
SK-OV-3 = test: Cytostatic activity in human SK-OV-3 cells assessed as tumor growth inhibition measured after 48 hrs by NCI protocol based SRB assay
UO-31 = test: Cytostatic activity in human UO-31 cells assessed as tumor growth inhibition measured after 48 hrs by NCI protocol based SRB assay
786-0 = test: Cytostatic activity in human 786-0 cells assessed as tumor growth inhibition measured after 48 hrs by NCI protocol based SRB assay
UACC-257 = test: Antiproliferative activity against human UACC-257 cells assessed as growth inhibition measured after 48 hrs by NCI protocol based SRB assay
BT-549 = test: Antiproliferative activity against human BT-549 cells assessed as growth inhibition measured after 48 hrs by NCI protocol based SRB assay
MDA-MB-231 [10] = test: Antiproliferative activity against human MDA-MB-231 cells assessed as growth inhibition measured after 48 hrs by NCI protocol based SRB assay
HT-29 = test: Cytostatic activity in human HT-29 cells assessed as tumor growth inhibition measured after 48 hrs by NCI protocol based SRB assay
PC-3 = test: Cytostatic activity in human PC-3 cells assessed as tumor growth inhibition measured after 48 hrs by NCI protocol based SRB assay
HCT-15 = test: Cytostatic activity in human HCT-15 cells assessed as tumor growth inhibition measured after 48 hrs by NCI protocol based SRB assay
IGROV-1 = test: Cytostatic activity in human IGROV-1 cells assessed as tumor growth inhibition measured after 48 hrs by NCI protocol based SRB assay
SW-620 = test: Cytostatic activity in human SW-620 cells assessed as tumor growth inhibition measured after 48 hrs by NCI protocol based SRB assay
RS4-11 = test: Induction of cell cycle arrest in human RS4-11 cells assessed as accumulation of cells in G2/M phase measured after 48 hrs by PI staining based flow cytometry analysis; conditions: dose 1.25-10 µM, DDE = dose-dependent effect
[11] = read-out: LC50 (the source's name)

N#Cc1c(-c2ccco2)nc2c(c(-c3ccccc3)nn2-c2ccccc2)c1-c1ccc(O)cc1
inhibition of growth at 10 µM (SR [1]): 81%

N#Cc1c(-c2ccccc2)nc2c(c(-c3ccccc3)nn2-c2ccccc2)c1-c1ccc(O)cc1
TGI (SR [2]): > 100 µM
TGI (SK-MEL-2): 5.65 µM
TGI (MDA-MB-231 [3]): 3.31 µM
GI50 (T47D): 3.05 µM
CC50 (T47D; [11]): > 100 µM
GI50 (Hs-578T [4]): 1.41 µM
CC50 (Hs-578T [4]; [11]): 43.8 µM
GI50 (SF-268): 2.83 µM
CC50 (SF-268; [11]): 47.2 µM
TGI (NCI-H322M): 2.96 µM
GI50 (RPMI-8226): 2.42 µM
CC50 (RPMI-8226; [11]): > 100 µM
TGI (Hs-578T [5]): 4.46 µM
GI50 (A549): 2.57 µM
CC50 (A549; [11]): 84.2 µM
TGI (HCC 2998): 3.47 µM
TGI (SF-295 [6]): 4.29 µM
GI50 (SK-MEL-5): 1.75 µM
CC50 (SK-MEL-5; [11]): 5.79 µM
GI50 (SK-MEL-28): 1.58 µM
CC50 (SK-MEL-28; [11]): 5.86 µM
GI50 (HOP-92 [7]): 2.06 µM
CC50 (HOP-92 [7]; [11]): 8.6 µM
GI50 (NCI-H226): 1.97 µM
CC50 (NCI-H226; [11]): 37.3 µM
TGI (HOP-92 [8]): 4.2 µM
TGI (OVCAR-3): 4.45 µM
GI50 (EKVX): 1.92 µM
CC50 (EKVX; [11]): 21.9 µM
TGI (ACHN): 5.89 µM
GI50 (SF-295 [9]): 1.88 µM
CC50 (SF-295 [9]; [11]): 9.8 µM
GI50 (HCT-116): 2.63 µM
CC50 (HCT-116; [11]): 83.4 µM
GI50 (NCI-H23): 1.78 µM
CC50 (NCI-H23; [11]): 8.26 µM
GI50 (A498): 1.66 µM
CC50 (A498; [11]): 5.69 µM
GI50 (MDA-MB-435): 1.86 µM
CC50 (MDA-MB-435; [11]): 7.39 µM
TGI (M14): 5.48 µM
TGI (SK-OV-3): 8.48 µM
TGI (UO-31): 4.17 µM
TGI (786-0): 5.35 µM
GI50 (UACC-257): 3.13 µM
CC50 (UACC-257; [11]): 6.55 µM
GI50 (BT-549): 2 µM
CC50 (BT-549; [11]): 9.92 µM
GI50 (MDA-MB-231 [10]): 1.7 µM
CC50 (MDA-MB-231 [10]; [11]): 6.44 µM
TGI (HT-29): 6.44 µM
TGI (PC-3): 3.78 µM
TGI (HCT-15): 3.79 µM
TGI (IGROV-1): 3.62 µM
TGI (SW-620): 3.53 µM

Cc1ccc(-c2nc3c(c(-c4ccccc4)nn3-c3ccccc3)c(-c3ccc(O)cc3)c2C#N)cc1
Activity (RS4-11): Dde

From ChEMBL document CHEMBL5131391, “One-pot three-component synthesis of novel pyrazolo[3,4-b]pyridines as potent antileukemic agents” (Eur J Med Chem, 2022)
